Molecular target: Sodium- and chloride-dependent taurine transporter (Homo sapiens) (UniProt P31641)
Experiment: taurine transporter SLC6A6 activation, membrane depolarization – cell-based, membrane potential dye, HEK-293, SLC6A6 overexpression, dose response (AID 1794824)
Conditions: HEK-293 SLC6A6 OE, FLIPR membrane potential dye

Sequence of Sodium- and chloride-dependent taurine transporter (Homo sapiens) (P31641 whole entry, looked up): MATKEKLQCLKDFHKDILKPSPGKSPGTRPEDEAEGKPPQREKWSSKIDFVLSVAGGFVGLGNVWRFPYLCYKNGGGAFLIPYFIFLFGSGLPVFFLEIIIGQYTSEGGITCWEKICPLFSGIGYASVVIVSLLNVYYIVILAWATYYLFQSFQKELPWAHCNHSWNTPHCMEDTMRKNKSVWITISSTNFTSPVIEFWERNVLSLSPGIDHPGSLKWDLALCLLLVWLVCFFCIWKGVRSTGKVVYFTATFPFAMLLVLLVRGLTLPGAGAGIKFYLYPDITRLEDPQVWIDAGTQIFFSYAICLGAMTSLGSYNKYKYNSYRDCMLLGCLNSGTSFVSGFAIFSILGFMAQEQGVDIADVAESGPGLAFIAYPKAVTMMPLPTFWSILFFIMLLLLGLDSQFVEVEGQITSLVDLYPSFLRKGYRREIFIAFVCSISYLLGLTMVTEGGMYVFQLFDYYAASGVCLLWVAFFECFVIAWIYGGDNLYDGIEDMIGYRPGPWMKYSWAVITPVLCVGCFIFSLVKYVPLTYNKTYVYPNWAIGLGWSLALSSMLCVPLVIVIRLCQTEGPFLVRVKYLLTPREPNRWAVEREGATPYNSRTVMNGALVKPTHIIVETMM

| EC50 [µM] | Compound |
| --- | --- |
| 10 | NCCS(=O)(=O)O |
| 354 | NCCCC(=O)O |

Reference: PubChem BioAssay AID1794824
